Measurements published in publication PMC10756276, “Highly specific σ2R/TMEM97 ligand FEM-1689 alleviates neuropathic pain and inhibits the integrated stress response” (Proceedings of the National Academy of Sciences of the …, 2023).

Key:
Alpha2b = target: T1, Alpha2b (Homo sapiens, UniProt P18089); test: PDSP competitive binding assay; details: 10 µM test article; read-out: Ki: primary assay inhibition of radioligand binding, Alpha2b
T1 construct: purchased NIMH Psychoactive Drug Screening Program (PDSP), University of North Carolina at Chapel Hill

5HT1A = target: T2, 5HT1A (Homo sapiens, UniProt P08908); test: PDSP competitive binding assay; details: 10 µM test article; read-out: Ki: primary assay inhibition of radioligand binding, 5HT1A
T2 construct: purchased NIMH Psychoactive Drug Screening Program (PDSP), University of North Carolina at Chapel Hill

p-eIF2α in HEK293T cells = test: p-eIF2α ICC and spectrophotometry in HEK293T cells; type: cell-based, human
Procedure: The ICC protocol was based on a previously published protocol ([76]). […] Cells were blocked with 10% normal goat serum (NGS) in PBS-triton X (0.1%). […] Antibodies were incubated at 4 °C overnight. […] It was washed with PBS twice. […] Images were analyzed using Olympus CellSens. […] Number of cells analyzed are detailed in SI Appendix, Tables S3 and S4.
Human embryonic kidney (HEK) 293 T cells (ATCC # CRL-3216) were generously donated by the Campbell Lab (UT Dallas). Cells were grown at 37 °C with 5% CO2 in complete medium (10% FBS, 1% Pen-Strep in DMEM/F12 + GlutaMax (Gibco #10565-018) in T-75 flasks (Greiner Bio-One #658175). In a 96-well plate (ThermoFisher #165305), cells were plated at a density of 20,000 cells per well and grown to roughly 65% confluency before being treated with FEM-1689. For 2-h FEM-1689 treatment, HEK cells were plated at a density of 32,000 cells per well and treated at roughly 85% confluency. Three to five replicates were made per condition/dose (1/2 log steps ranging from 0.1 to 1,000 nM). ICC was performed to label p-eIF2α and DAPI. Immunofluorescence of HEK cells was quantified using the Synergy HTX Multimode Reader. For further details regarding the culturing of HEK cells, see SI Appendix. […]
Huma n e mbryon ic kidn ey (HEK) 293T ce lls (ATCC # C RL- 321 6) were ge nerously dona ted by th e Ca mpb ell Lab (UT Dallas). Cell stock s were previously fr ozen at 1 million cells/ml in 90% fetal bov ine s erum (F BS, ThermoFisher #SH300880340) and 10% DMSO. Cells were grown in complete medium (10% FBS, 1% Pen- Strep in DMEM/F12 + GlutaMax (Gibco #10565- 018) in T-75 flasks (Greiner Bio- One #658175). Cells were maintained at 37 °C with 5% CO2 and passaged twice before being plated onto either 96-well or 6-well plates for ICC/spectrophotometry and western blotting, respectively. Cells were counted using the TC20 automated cell counter (Bio- R ad #1450102) using a 1:1 dilution of trypan blue (Gibco #15250061).
In a 9 6-well p lat e (Therm oFisher #16 530 5), cells were p late d at a de nsity of 20,0 00 cells per w ell a nd gro wn to rou gh ly 65 % conf lu ency before be in g tre ate d w ith F EM- 16 89. For 2 h our F EM- 1689 trea tme nt, HEK ce lls were plated at a density of 32,000 cells per well and treated at roughly 85% confluency. […] Immunofluorescence of HEK cells was quantif ied using the Synergy HTX Multimode Reader. […] Wells were topped with 100 µL of 1X PBS prior to being read. DAPI and p -eIF2α reads were performed at bottom with a gain of 3 5 a nd 45, r espective ly. […]
fluorescence units (RFUs) of the negative controls were subtracted from each well. P-eIF2α fluorescence was normalized to DAPI in order to control for the number of cells present in the well and then to the fluoresce nce of th e veh icle t reatme nt as a p ercenta ge. […]

T1 sequence (P18089 whole entry): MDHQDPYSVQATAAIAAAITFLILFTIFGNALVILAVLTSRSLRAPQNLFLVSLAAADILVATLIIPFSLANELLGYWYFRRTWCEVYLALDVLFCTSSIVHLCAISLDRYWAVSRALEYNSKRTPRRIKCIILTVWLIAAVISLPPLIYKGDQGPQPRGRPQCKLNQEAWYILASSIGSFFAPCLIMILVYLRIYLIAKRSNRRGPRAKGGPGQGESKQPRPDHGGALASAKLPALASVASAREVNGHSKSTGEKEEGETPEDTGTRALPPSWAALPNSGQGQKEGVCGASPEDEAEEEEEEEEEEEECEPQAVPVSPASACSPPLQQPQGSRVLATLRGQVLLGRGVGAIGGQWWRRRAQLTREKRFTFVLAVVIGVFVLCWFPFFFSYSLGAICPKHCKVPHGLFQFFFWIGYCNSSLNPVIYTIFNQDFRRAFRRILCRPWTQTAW
T2 sequence (P08908 whole entry): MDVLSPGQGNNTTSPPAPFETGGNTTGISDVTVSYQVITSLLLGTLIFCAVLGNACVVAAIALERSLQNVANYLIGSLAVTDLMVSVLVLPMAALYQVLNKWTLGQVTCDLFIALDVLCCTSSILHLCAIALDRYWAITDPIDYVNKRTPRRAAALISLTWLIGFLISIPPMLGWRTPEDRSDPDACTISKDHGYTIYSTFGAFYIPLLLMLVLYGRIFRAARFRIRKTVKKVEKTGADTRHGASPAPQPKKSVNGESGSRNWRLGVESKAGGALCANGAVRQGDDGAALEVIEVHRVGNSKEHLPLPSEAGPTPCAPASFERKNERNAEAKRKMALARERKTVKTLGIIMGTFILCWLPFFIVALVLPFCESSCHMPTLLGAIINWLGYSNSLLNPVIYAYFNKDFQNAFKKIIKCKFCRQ

OCCCN1CC[C@@H]2C[C@H]1c1cc(-c3ccc(C(F)(F)F)cc3)ccc12 [FEM-1689]
inhibition at 10 µM (Alpha2b): < 50%
inhibition at 10 µM (5HT1A): < 50%
IC50 (p-eIF2α in HEK293T cells; 2 h treatment): 5.89 nM
IC50 (p-eIF2α in HEK293T cells; 16 h treatment): 0.74 nM
IC50 (p-eIF2α in HEK293T cells; Homo sapiens, HEK-293T, 2 h, 2 h treatment): 5.9 nM
IC50 (p-eIF2α in HEK293T cells; Homo sapiens, HEK-293T, 16 h, 16 h treatment): 0.7 nM
